Source: PubChem BioAssay (NCI)
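Assay format: 96-well plates, 48-hour exposure. The concentration for full growth arrest is given as TGI.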

Experiments:
Assay in all cases: inhibition of tumour cell growth, NCI panel, 48 h
SK-OV-3 ovarian = test system: SK-OV-3 ovarian
ACHN renal = test system: ACHN renal
SK-MEL-28 melanoma = test system: SK-MEL-28 melanoma
OVCAR-5 ovarian = test system: OVCAR-5 ovarian
OVCAR-4 ovarian = test system: OVCAR-4 ovarian
TK-10 renal = test system: TK-10 renal
UO-31 renal = test system: UO-31 renal
CAKI-1 renal = test system: CAKI-1 renal
HL-60(TB) leukemia = test system: HL-60(TB) leukemia
SF-539 CNS = test system: SF-539 CNS
NCI-H23 lung = test system: NCI-H23 lung
A549 NSCLC = test system: A549 NSCLC
MCF7 breast = test system: MCF7 breast
OVCAR-3 ovarian = test system: OVCAR-3 ovarian
CCRF-CEM leukemia = test system: CCRF-CEM leukemia
U251 CNS = test system: U251 CNS
HCT-15 colon = test system: HCT-15 colon
IGROV1 ovarian = test system: IGROV1 ovarian
UACC-257 melanoma = test system: UACC-257 melanoma
SNB-19 CNS = test system: SNB-19 CNS
EKVX NSCLC = test system: EKVX NSCLC
MOLT-4 leukemia = test system: MOLT-4 leukemia
PC-3 prostate = test system: PC-3 prostate
MDA-MB-435 = test system: MDA-MB-435
SF-295 CNS = test system: SF-295 CNS
NCI-H226 lung = test system: NCI-H226 lung
HT29 colon = test system: HT29 colon
M14 melanoma = test system: M14 melanoma
KM12 colon = test system: KM12 colon
SF-268 CNS = test system: SF-268 CNS
HCT-116 colon = test system: HCT-116 colon
T-47D breast = test system: T-47D breast
HOP-92 NSCLC = test system: HOP-92 NSCLC
786-0 renal = test system: 786-0 renal
MDA-N = test system: MDA-N
MDA-MB-231 breast = test system: MDA-MB-231 breast
LOX IMVI melanoma = test system: LOX IMVI melanoma
SNB-75 CNS = test system: SNB-75 CNS
HS 578T breast = test system: HS 578T breast
NCI-H522 lung = test system: NCI-H522 lung
SN12C renal = test system: SN12C renal
SK-MEL-5 melanoma = test system: SK-MEL-5 melanoma
K-562 leukemia = test system: K-562 leukemia
BT-549 breast = test system: BT-549 breast
RPMI-8226 leukemia = test system: RPMI-8226 leukemia
OVCAR-8 ovarian = test system: OVCAR-8 ovarian
SK-MEL-2 melanoma = test system: SK-MEL-2 melanoma
NCI-H460 lung = test system: NCI-H460 lung
HOP-62 NSCLC = test system: HOP-62 NSCLC
RXF 393 renal = test system: RXF 393 renal
UACC-62 melanoma = test system: UACC-62 melanoma
DU-145 prostate = test system: DU-145 prostate
SR leukemia = test system: SR leukemia
MALME-3M melanoma = test system: MALME-3M melanoma
NCI/ADR-RES ovarian = test system: NCI/ADR-RES ovarian
A498 renal = test system: A498 renal
SW-620 colon = test system: SW-620 colon
COLO 205 colon = test system: COLO 205 colon

Measured: TGI

O=S(=O)(O)/C(=C\c1ccccc1)c1ccccc1 (tested in a mixture with another compound)
> 100 µM: all assays above
